Source: ChEMBL document CHEMBL1130144, “Ras farnesyltransferase: a new therapeutic target” (J Med Chem, 1997)
Non-standard residues stand in square brackets, D forms with d. Residues, ends and D or L forms follow the SMILES beside them. *: point of attachment. Cbz = O=C(OCc1ccccc1)*; Bn = c1ccc(C*)cc1

Tests used:
[1] = target: Geranylgeranyl transferase type I (Homo sapiens, UniProt P49354+P53609); experiment: (§1) Activity against Geranylgeranyl transferase type I; type: protein-complex assay
NIH3T3 [2] = experiment: Inhibition of Ras processing in v-Ras-transformed NIH 3T3 cell growth in soft agar at 50 uM; type: functional, cell-based; settings: Mus musculus
[3] = target: Protein farnesyltransferase (Bos taurus, UniProt P29702+P49355); experiment: Activity against bovine Farnesyltransferase; type: protein-complex assay
[4] = target: T1, Protein farnesyltransferase (Homo sapiens, UniProt P49354+P49356); experiment: Activity against Farnesyltransferase; type: protein-complex assay
[5] = target: T2, Protein farnesyltransferase (Rattus norvegicus, UniProt Q02293+Q04631); experiment: Activity against rat Farnesyltransferase; type: protein-complex assay
NIH3T3 [6] = experiment: Inhibition in clonogenic assay against H-Ras-transformed NIH3T3 cells; type: functional, cell-based; settings: Mus musculus
[7] = target: T1, Protein farnesyltransferase; experiment: Inhibitory activity against Ras Farnesyltransferase; type: protein-complex assay
Mus musculus [8] = experiment: Activity against H-Ras-transformed rat-1 tumor cells implanted intraperitoneally in athymic mice; type: functional
[9] = Inhibition of K-Ras-transformed fibrosarcoma growth; type: functional
[10] = target: T3, Protein farnesyltransferase (Mus musculus) (UniProt Q61239+Q8K2I1); experiment: (§2) Inhibition of Ras-processing in H-Ras transformed NIH3T3 fibroblasts; type: functional, cell-based
[11] = target: T1, Protein farnesyltransferase; experiment: Inhibitory activity against farnesyl pyrophosphate; type: protein-complex assay
Tumor Cell line = experiment: Inhibition of colony formation in soft agar of 14 human tumor cell lines; type: functional, cell-based
[12] = target: Protein farnesyltransferase (Sus scrofa); experiment: Activity against pig Farnesyltransferase
[13] = target: T1, Protein farnesyltransferase; experiment: Activity against human Farnesyltransferase; type: protein-complex assay
Mus musculus [14] = species on record: Mus musculus; experiment: Percent increase in life span of NIH3T3 cell tumor-bearing nude mice; type: functional
NIH3T3 [15] = experiment: Activity against H-Ras transformed NIH3T3 fibroblasts in a clonogenic assay; type: functional, cell-based; settings: Mus musculus
[16] = as §1
[17] = target: T1, Protein farnesyltransferase; experiment: Activity against Ras Farnesyltransferase from Burkett's lymphoma.; type: protein-complex assay
[18] = target: T1, Protein farnesyltransferase; experiment: Activity against Ras Farnesyltransferase from human colon carcinoma; type: protein-complex assay
[19] = target: T1, Protein farnesyltransferase; experiment: Inhibition of Ras processing in v-Ras-transformed cells; type: functional, cell-based
Homo sapiens = experiment: Inhibition of EJ-1 human bladder carcinoma growth at 100 mg/kg; type: functional
[20] = target: T1, Protein farnesyltransferase; experiment: Inhibition of H-Ras Farnesyltransferase; type: protein-complex assay
[21] = target: T3, Protein farnesyltransferase (Mus musculus); experiment: Concentration disrupting H-Ras processing in human H-Ras BALB/c 3T3 cells; type: functional, cell-based
[22] = target: T2, Protein farnesyltransferase; experiment: Activity against rat brain Farnesyltransferase
[23] = target: T1, Protein farnesyltransferase; experiment: Concentration inhibiting farnesylation of p21ras in Ras-transformed cells; type: functional, cell-based
[24] = target: T4, Protein farnesyltransferase (Mus musculus, UniProt Q61239+Q8K2I1); experiment: as §2; type: functional, cell-based
Farnesyltransferase = target: T5, Farnesyltransferase (Saccharomyces cerevisiae S288c, UniProt P22007+P29703); experiment: Activity against yeast Farnesyltransferase; type: protein-complex assay
T5 sequence (P29703 whole entry): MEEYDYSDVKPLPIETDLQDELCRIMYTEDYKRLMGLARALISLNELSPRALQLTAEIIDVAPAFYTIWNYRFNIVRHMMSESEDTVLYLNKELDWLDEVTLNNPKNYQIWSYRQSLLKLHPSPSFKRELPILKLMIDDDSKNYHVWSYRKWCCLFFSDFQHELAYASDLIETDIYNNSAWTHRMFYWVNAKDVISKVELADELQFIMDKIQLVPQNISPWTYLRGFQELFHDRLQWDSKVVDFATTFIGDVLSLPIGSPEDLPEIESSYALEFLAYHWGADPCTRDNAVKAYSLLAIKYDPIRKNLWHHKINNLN
T5 sequence (P22007 whole entry): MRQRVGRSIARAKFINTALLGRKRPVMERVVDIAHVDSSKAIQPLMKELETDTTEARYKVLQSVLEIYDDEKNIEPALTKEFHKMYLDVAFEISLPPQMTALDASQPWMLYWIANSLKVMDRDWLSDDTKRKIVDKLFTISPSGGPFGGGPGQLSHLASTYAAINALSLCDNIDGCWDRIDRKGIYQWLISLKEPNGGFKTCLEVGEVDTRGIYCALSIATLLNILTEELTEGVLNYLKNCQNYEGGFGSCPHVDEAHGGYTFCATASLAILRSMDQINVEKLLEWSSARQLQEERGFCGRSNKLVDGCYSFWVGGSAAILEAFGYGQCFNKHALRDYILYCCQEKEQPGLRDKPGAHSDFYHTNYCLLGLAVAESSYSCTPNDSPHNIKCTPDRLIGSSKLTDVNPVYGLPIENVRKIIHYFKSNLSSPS

[25] = target: T4, Protein farnesyltransferase; experiment: Inhibition of Ras processing; type: functional
NIH3T3 [26] = experiment: Inhibitory activity against Ha-Ras-transformed NIH3T3 cells; type: functional, Mus musculus
Mus musculus [27] = species on record: Mus musculus; experiment: Concentration causing regression of MMTV-v-Ras mice bearing palpable tumors; type: functional, organism-based

CC[C@@H](C)[C@H](NC[C@@H](NC[C@@H](N)CS)[C@H](C)CC)C(=O)N[C@H]1CCOC1=O
IC50 [1]: > 10000 nM
IC50 (NIH3T3 [2]): 50000 nM
IC50 [3]: 280 nM

O=C(N[C@H](Cc1cnc[nH]1)C(=O)N[C@@H](Cc1ccc(OCc2ccccc2)cc1)C(=O)NCCOCc1ccccc1)OCc1ccccc1
IC50 [4]: 20 nM

CSCC[C@H](NC(=O)[C@@H]1Cc2ccccc2CN1C(=O)[C@@H](NCCc1cnc[nH]1)C(C)C)C(=O)O
IC50 [5]: 0.79 nM
IC50 (NIH3T3 [6]): 3800 nM

CC(C)=CCC/C(C)=C/CC/C(C)=C/C(=O)NC(CCC(=O)N[C@H](C(=O)N[C@@H](CC(C)C)C(=O)N[C@@H](CO)C(=O)O)C(C)C)C(=O)O (stereo partly specified)
IC50 [7]: 33 nM

CC(C)=CCC/C(C)=C/CC/C(C)=C/CONC(=O)CP(=O)(O)OCOC(=O)C(C)(C)C
IC50 [4]: 2610 nM

COC(=O)[C@H](CCSC)NC(=O)[C@@H]1Cc2ccccc2CN1C(=O)[C@@H](NC[C@@H](N)CS)C(C)(C)C
IC50 [5]: 85 nM
IC50 [1]: 200 nM
T/C (Mus musculus [8]): 154%

CN1C(=O)[C@]23CC4=CC=C[C@H](O)[C@H]4N2C(=O)[C@@]1(CO)SS3 [GLIOTOXIN]
IC50 [4]: 1100 nM
Concentration [9]: 6.3 mg/kg

CC(C)=CCC/C(C)=C/CC/C(C)=C/CCP(=O)(O)CP(=O)(O)O
Concentration [10]: 1 µM
Ki [11]: 830 nM

CC(C)=CCC/C(C)=C/CC/C(C)=C/CNC(=O)C(COP(=O)(O)O)C(=O)O (stereo unspecified)
IC50 [4]: 83 nM

CN(C(=O)[C@@H](Cc1c[nH]cn1)NC(=O)OCc1ccccc1)[C@@H](Cc1ccc(OCc2ccccc2)cc1)C(=O)NCCOCc1ccccc1
Concentration [10]: 2.5 µM

COC(=O)[C@H](CCSC)NC(=O)[C@H](/C=C\[C@@H](/C=C/[C@@H](N)CS)C(C)C)Cc1ccccc1
IC50 (Tumor Cell line): 60000 nM

COC(=O)[C@H](CCSC)NC(=O)[C@@H](NC(=O)[C@@H](NC(=O)CCP(=O)(O)C/C=C(\C)CC/C=C(\C)CCC=C(C)C)C(C)C)C(C)C
Concentration [10]: 0.1 µM

CC(C)(C)[C@H](NC[C@@H](N)CS)C(=O)N1Cc2ccccc2C[C@H]1C(=O)N[C@@H](CCC(N)=O)C(=O)O
IC50 [5]: 2.8 nM
IC50 [1]: 1400 nM

CC(C)=CCC/C(C)=C/CC/C(C)=C/C(=O)C(F)(F)P(=O)(O)O
IC50 [12]: 350 nM

CCCCCCCCCCCCCC/C(C(=O)O)=C(\C)C(=O)O [CHAETOMELLIC ACID A]
IC50 [13]: 60 nM

O=C(CN(Cc1ccc(OCc2ccccc2)cc1)C(=O)[C@H](Cc1c[nH]cn1)NC(=O)OCc1ccccc1)NCCc1ccccc1
Concentration [10]: 0.1 µM
ILS (Mus musculus [14]): 35%
IC50 [4]: 170 nM
IC50 (NIH3T3 [15]): 4400 nM

CSCCC(NC(=O)CN1C(=O)[C@H](N(C)C(=O)[C@H](N)CS)NC(c2ccccc2)c2ccccc21)C(=O)O (stereo partly specified)
IC50 [5]: 0.79 nM

CCC(C)[C@@H](CO[C@@H](Cc1ccccc1)C(=O)N[C@@H](CCS(C)(=O)=O)C(=O)OC)NC[C@@H](N)CS (stereo partly specified)
IC50 (NIH3T3 [2]): 10000 nM
IC50 [3]: 240 nM

CC[C@H](C)[C@H](NC[C@@H](NC[C@@H](N)CS)[C@@H](C)CC)C(=O)N[C@@H](CCO)C(=O)O
IC50 [16]: > 10000 nM
IC50 [3]: 18 nM

CSC[C@H](NC(=O)c1cccc(CNC(=O)[C@@H](N)CS)c1)C(=O)O
IC50 [17]: 120 nM
IC50 [18]: 60 nM

CC(C)=CCC/C(C)=C/CC/C(C)=C/CONC(=O)COP(=O)(O)O
IC50 [4]: 75 nM

CSCC[C@H](NC(=O)[C@H](Cc1ccccc1)NC[C@@H](NC[C@@H](N)CS)C(C)C)C(=O)O
IC50 [19]: 50000 nM

CSCC[C@H](NC(=O)[C@H](/C=C\[C@@H](/C=C/[C@@H](N)CS)C(C)C)Cc1ccccc1)C(=O)O
inhibition in vivo at 100 mg/kg (Homo sapiens): 60%
IC50 [20]: 11 nM

CCC/C=C\c1ccccc1/C=C/C(=O)N[C@H](Cc1ccc(O)cc1)C(=O)N(C)C(Cc1ccc(OC)c(O)c1Cl)C(=O)N(C)[C@@H](Cc1ccccc1)C(=O)OC[C@@H]1NC(=O)CNC1=O (stereo partly specified)
IC50 [13]: 100 nM

CCC(CC(C)C(=O)O)C(=O)CC/C1=C/C(C)C/C(C)=C/C(C)C(O)C(C)CCC(CCCC/C=C/C(C)CCC(C)OC(=O)CC(CC(=O)O)C(=O)O)OC(=O)CC(C(=O)O)CC(=O)OC1 (stereo unspecified) [ACTINOPLANIC ACID A]
IC50 [13]: 230 nM

O=C(CN(Cc1ccc(OCc2ccccc2)cc1)C(=O)[C@H](Cc1c[nH]cn1)NC(=O)OCc1ccccc1)NCCOCc1ccccc1
Concentration [10]: 1 µM
IC50 [4]: 260 nM

O=C(N[C@H](Cc1c[nH]cn1)C(=O)N[C@@H](Cc1ccc(OCc2ccccc2)cc1)C(=O)NCCOCc1ccccc1)OCc1ccccc1
Concentration [10]: 5 µM

N[C@@H](CS)CNc1ccc(-c2cccc(C(=O)O)c2)cc1
Concentration [21]: 50 µM
IC50 [22]: 50 nM

O=C1C=C[C@]23Oc4ccc(O)c5c4[C@](Oc4cccc1c42)(O3)C1OC1C5=O (stereo partly specified) [PREUSSOMERIN]
IC50 [3]: 1200 nM

CN(C(=O)[C@@H](Cc1cnc[nH]1)NC(=O)OCc1ccccc1)[C@@H](Cc1ccc(OCc2ccccc2)cc1)C(=O)NCCOCc1ccccc1
IC50 [4]: 400 nM

CC(C)=CCC/C(C)=C/CC/C(C)=C/C(O)P(=O)(O)O (stereo unspecified)
Concentration [10]: 1 µM
Ki [11]: 5.2 nM

CCC(C)[C@@H](CO[C@@H](Cc1ccccc1)C(=O)N[C@@H](CCS(C)(=O)=O)C(=O)O)NC[C@@H](N)CS (stereo partly specified)
IC50 [3]: 240 nM

C[C@@H](NC(=O)[C@H](Cc1c[nH]c2ccccc12)NC(=O)[C@H](COCc1ccccc1)NC(=O)[C@H](Cc1ccc(OCc2ccccc2)cc1)NC(=O)[C@@H](Cc1c[nH]cn1)NC(=O)OCc1ccccc1)C(N)=O (Cbz-[dH]Y(Bn)S(Bn)W[dA]-NH2)
Concentration [10]: 25 µM
IC50 [4]: 20 nM

CCC(OCCCCNCCSS(=O)(=O)O)C1CCCCC1 (stereo unspecified)
Concentration [23]: 25 µM
IC50 [22]: 2000 nM

CCC(=O)O[C@H](C[C@@]1(C)[C@H](C)CCC(=O)[C@@H]1C)/C(C)=C/Cc1c(O)cc(C)c(C=O)c1O [CYLINDROL A]
IC50 [3]: 2200 nM

C[C@@H](NC(=O)[C@H](Cc1c[nH]c2ccccc12)NC(=O)[C@H](COCc1ccccc1)NC(=O)[C@H](Cc1ccc(OCc2ccccc2)cc1)NC(=O)[C@H](Cc1c[nH]cn1)NC(=O)OCc1ccccc1)C(N)=O
IC50 [24]: 420 nM

CCCCC(C)/C=C(C)/C=C(\C)CC(=O)NC1=CC(O)(/C=C/C=C/C=C/C(=O)NC2=C(O)CCC2=O)C2OC2C1=O (stereo unspecified)
IC50 (Farnesyltransferase): 5000 nM

COC(=O)C1=CC(CO)=COc2oc3cccc(O)c3c(=O)c21 [FUSIDIENOL]
IC50 [3]: 1000 nM

COCC[C@@H]1CN(C(=O)c2cccc3ccccc23)CCN1C[C@H](N)CS
IC50 [1]: 10000 nM
IC50 [25]: 500 nM
IC75 (NIH3T3 [26]): 40 mg/kg
IC50 [3]: 5 nM

CCCCCCCC/C=C\CCCCCC/C(C(=O)O)=C(\C)C(=O)O [CHAETOMELLIC ACID B]
IC50 [13]: 190 nM

COC(=O)C(CCSC)NC(=O)CN1C(=O)[C@H](N(C)C(=O)[C@H](N)CS)NC(c2ccccc2)c2ccccc21 (stereo partly specified)
IC50 [5]: 0.85 nM

CC[C@H](C)[C@@H](CO[C@@H](Cc1ccccc1)C(=O)N[C@@H](CCS(C)(=O)=O)C(=O)OC(C)C)NC[C@@H](N)CS
Concentration (Mus musculus [27]): 40 mg/kg

COC1=C(N)C(=O)c2nc(-c3nc(C(=O)O)c(C)c(-c4cccc(OC)c4O)c3N)ccc2C1=O
IC50 [4]: 21000 nM
